In brackets after ≈: the same amount, converted by molar mass.

Assay [1] relates to U-937. Kind of assay: Cytotoxicity against human U937 cells by MTT assay. Type of assay: functional, cell-based. A general note: Formazan colour is commonly taken as a measure of viable cells.
The nature of assay [2]: Cytotoxicity against human Hep3B cells by MTT assay. Type of assay: functional, cell-based, Hep 3B2.

On to `COc1cc(C(=O)OC[C@H]2O[C@@H](Oc3ccc(O)c4cccc(O)c34)[C@H](O)[C@@H](O)[C@@H]2O)cc(OC)c1O`, for which the half-maximal inhibitory concentration (IC50) (as a rule, the concentration that inhibits the measured activity by half) in assay [1] is 50 µg/mL (≈ 96.4 µM); in assay [2] it was > 100 µg/mL.

Turning to `O=C(OC[C@H]1O[C@@H](Oc2ccc(O)c3cccc(O)c23)[C@H](O)[C@@H](O)[C@@H]1O)c1cc(O)c(O)c(O)c1`, the concentration for half-maximal inhibition (IC50) in assay [1] was 30 µg/mL (≈ 61.2 µM); in assay [2] it was > 100 µg/mL.

These data come from ChEMBL document CHEMBL1151681, “New Naphthalenyl Glucosides from the Roots of Juglans mandshurica” (J Nat Prod, 1996).
